Literature values in patent US5922837A, “Antiprotozoal cyclic tetrapeptides” (Merck & Co., Inc., priority 1997, dated 1999).

Columns and labels:
[1] = tested on: sis-transformed fibroblast cells
[2] = tested on: partially purified yeast histone deacetylase
[3] = tested on: murine erythroleukemia cells
[4] = tested on: mammalian histone deacetylase
[5] = tested on: v-sis-transformed NIH3T3 cells

Molecule | induction of phenotypic reversion [1] | inhibition of partially purified yeast histone deacetylase [2] | anti-trichomonal activity (trichomonal) | cell differentiating activity [3] | type of inhibition of mammalian histone deacetylase [4] | morphological reversion [5]
CC(/C=C/C(=O)NO)=C\[C@@H](C)C(=O)c1ccc(N(C)C)cc1 [trichostatin A] | ability to induce phenotypic reversion | inhibit | anti-trichomonal activity | cell differentiating activity | reversible | –
trapoxin A | – | – | – | – | irreversible | induces morphological reversion
